Data reported in patent US10562900B2 (Shanghai Haihe Pharmaceutical Co., Ltd., priority 2014, dated 2020).

Assays:
FGFR3 = FGFR3 (Homo sapiens (Human), UniProt P22607); experiment: FGFR3 kinase activity at the molecular level (ELISA, Poly(Glu,Tyr) 4:1 substrate); assay type: biochemical; conditions: kinase domain recombinant protein, 5 μM ATP
Description: (§1) 100 μL/well of 2 mg/mL OPD developing solution (diluted with 0.1M citric acid-sodium citrate buffer containing 0.03% H2O2 (pH=5.4)), and reacted in dark for 1-10 minutes at 25° C.

FGFR2 = FGFR2 (Homo sapiens (Human), UniProt P21802); experiment: FGFR2 kinase activity at the molecular level (ELISA, Poly(Glu,Tyr) 4:1 substrate); assay type: biochemical; conditions: kinase domain recombinant protein, 5 μM ATP
Description: as §1

FGFR1 = FGFR1 (Homo sapiens (Human), UniProt P11362); experiment: FGFR1 kinase activity at the molecular level (ELISA, Poly(Glu,Tyr) 4:1 substrate); assay type: biochemical; conditions: kinase domain recombinant protein, 5 μM ATP
Description: as §1

[1] = test system: acute myelogenous leukemia cell strain KG1; experiment: Growth inhibition of FGFR1-dependent KG1 cells (CCK-8); assay type: cell-based; conditions: Homo sapiens, KG-1, 72 h treatment
Description: The growth inhibition of the acute myelogenous leukemia cell strain KG1 (FGFR1-dependent tumor cell strain; the FGFR1 fusion protein in the cell was expressed in the cytoplasm; purchased from ATCC cell bank) by the compounds was detected with CCK-8 cell count kit (Dojindo). The specific steps are as follows: KG1 cells in logarithmic growth phase were seeded onto a 96-well culture plate in appropriate density, 90 ul per well. After overnight culture, different concentrations of compounds were added and the treatment continued for 72 h, and solvent control group (negative control) was set. After treatment for 72 h, the effect of the compounds on cell proliferation was observed by CCK-8 cell counting kit (Dojindo). 10 μL of CCK-8 reagent was added to each well. After incubated for 2-4 hours in a 37 □ incubator, read with SpectraMax 190 microplate reader at 450 nm wavelength. The inhibition rate (%) of the compounds on tumor cell growth was calculated using the following formula: Inhibition rate (%)=(OD negative control well-OD administered well)/OD negative control well×100%.

Sequence of FGFR1 (P11362 478-767): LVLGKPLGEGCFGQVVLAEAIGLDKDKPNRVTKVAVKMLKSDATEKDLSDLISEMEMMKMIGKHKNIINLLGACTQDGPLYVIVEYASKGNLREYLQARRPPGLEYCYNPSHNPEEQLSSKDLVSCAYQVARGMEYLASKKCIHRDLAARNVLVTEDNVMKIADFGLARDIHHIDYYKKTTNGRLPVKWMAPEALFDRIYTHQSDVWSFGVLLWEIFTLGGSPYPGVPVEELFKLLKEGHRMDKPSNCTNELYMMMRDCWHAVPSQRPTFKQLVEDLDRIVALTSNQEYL
Sequence of FGFR2 (P21802 481-770): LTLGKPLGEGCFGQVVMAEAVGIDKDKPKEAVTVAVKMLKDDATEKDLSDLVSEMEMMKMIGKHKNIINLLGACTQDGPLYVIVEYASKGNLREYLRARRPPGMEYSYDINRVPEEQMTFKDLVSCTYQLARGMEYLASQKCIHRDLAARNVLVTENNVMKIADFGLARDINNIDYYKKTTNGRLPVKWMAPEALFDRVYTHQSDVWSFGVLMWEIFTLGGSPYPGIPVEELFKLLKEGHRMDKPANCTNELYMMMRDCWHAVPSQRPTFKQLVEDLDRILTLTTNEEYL
Sequence of FGFR3 (P22607 472-761): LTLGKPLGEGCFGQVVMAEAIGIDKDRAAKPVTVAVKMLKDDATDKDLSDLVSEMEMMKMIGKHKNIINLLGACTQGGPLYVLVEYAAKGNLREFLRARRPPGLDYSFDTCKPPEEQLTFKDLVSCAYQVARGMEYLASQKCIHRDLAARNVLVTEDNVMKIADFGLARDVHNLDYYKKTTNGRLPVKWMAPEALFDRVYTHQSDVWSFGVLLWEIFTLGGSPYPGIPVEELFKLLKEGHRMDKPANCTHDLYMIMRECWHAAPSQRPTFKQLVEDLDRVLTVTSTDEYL

Compound	IC50 (FGFR3) [nM]	IC50 (FGFR2) [nM]	IC50 (FGFR1) [nM]	IC50 [1] [nM]
COc1cc(OC)c(Cl)c(-c2ccc3c(NC(=O)c4ccc(CN5CCN(C)CC5)cc4)n[nH]c3c2)c1Cl [Example 16, N-(6-(2,6-dichloro-3,5-dimethoxyphenyl)-1H-indazole-3-yl)-4-((4-methylpiperazine-1-yl)methyl)benzamide]	< 100	< 100	< 100	200 to 1000
COc1cc(OC)c(Cl)c(-c2ccc3c(NC(=O)c4ccc(N5CCN(C)CC5)cc4)n[nH]c3n2)c1Cl [Example 63, N-(6-(2,6-dichloro-3,5-dimethoxyphenyl)-1H-pyrazolo [3,4-b]pyridin-3-yl)-4-(4-methylpiperazine-1-yl)benzamide]	< 100	< 100	< 100	–
COc1cc(OC)c(Cl)c(-c2ccc3c(NC(=O)c4ccc(N5CCOCC5)cc4)n[nH]c3c2)c1Cl [Example 17, N-(6-(2,6-dichloro-3,5-dimethoxyphenyl)-1H-indazole-3-yl)-4-morpholino benzamide]	< 100	< 100	< 100	200 to 1000
COc1cc(OC)c(Cl)c(-c2ccc3c(NC(=O)c4ccc(N5C[C@@H](C)N[C@@H](C)C5)cc4)n[nH]c3c2)c1Cl [Example 14]	–	–	–	< 200
COc1cc(OC)c(Cl)c(-c2ccc3c(NC(=O)c4ccc(N5C[C@@H](C)N[C@@H](C)C5)cc4)n[nH]c3n2)c1Cl [Example 64, N-(6-(2,6-dichloro-3,5-dimethoxyphenyl)-1H-pyrazolo [3,4-b]pyridin-3-yl)-4-((3S,5R)-3,5-dimethylpiperazine-1-yl)benzamide]	–	< 100	< 100	–
COc1cc(OC)c(Cl)c(-c2ccc3c(NC(=O)c4ccc(CN5CCN(C(C)=O)CC5)cc4)n[nH]c3c2)c1Cl [Example 19, 4-((4-acetyl-1-yl)methyl)-N-(6-(2,6-dichloro-3,5-dimethoxyphenyl)-1H-indazole-3-yl)benzamide]	< 100	< 100	< 100	200 to 1000
CCN1CCN(c2ccc(C(=O)Nc3n[nH]c4nc(-c5c(Cl)c(OC)cc(OC)c5Cl)ccc34)cn2)CC1 [Example 86, N-(6-(2,6-dichloro-3,5-dimethoxyphenyl)-1H-pyrazolo [3,4-b]pyridin-3-yl)-6-(4-ethylpiperazine-1-yl)nicotinamide]	–	< 100	< 100	–
CCN1CCN(c2ccc(C(=O)Nc3n[nH]c4cc(-c5c(Cl)c(OC)cc(OC)c5Cl)ccc34)cc2)CC1 [Example 18, N-(6-(2,6-dichloro-3,5-dimethoxyphenyl)-1H-indazole-3-yl)-4-(4-ethylpiperazine-1-yl)benzamide]	< 100	< 100	< 100	< 200
COc1cc(OC)c(Cl)c(-c2ccc3c(NC(=O)c4ccc(N5CCN(C)CC5)cc4)n[nH]c3c2)c1Cl [Example 15, N-(6-(2,6-dichloro-3,5-dimethoxyphenyl)-1H-indazole-3-yl)-4-(4-methylpiperazine-1-yl)benzamide]	< 100	< 100	< 100	< 200
COc1cc(OC)c(Cl)c(-c2ccc3c(NC(=O)c4cnc(N5CCN(C)CC5)nc4)n[nH]c3n2)c1Cl [Example 92, N-(6-(2,6-dichloro-3,5-dimethoxyphenyl)-1H-pyrazolo [3,4-b]pyridin-3-yl)-2-(4-methylpiperazine-1-yl)pyrimidine-5-formamide]	–	< 100	< 100	–
COc1cc(OC)c(Cl)c(-c2ccc3c(NC(=O)c4ccc(NC(=O)CN(C)C)cc4)n[nH]c3c2)c1Cl [Example 28, N-(6-(2,6-dichloro-3,5-dimethoxyphenyl)-1H-indazole-3-yl)-4-(2-(dimethylamino)acetylamino)benzamide]	–	< 100	< 100	–
COc1cc(OC)c(Cl)c(-c2ccc3c(NC(=O)c4ccc(NCCCN(C)C)cc4)n[nH]c3c2)c1Cl [Example 26, N-(6-(2,6-dichloro-3,5-dimethoxyphenyl)-1H-indazole-3-yl)-4-((3(dimethylamino)propyl)amino)benzamide]	–	< 100	< 100	–
COc1cc(OC)c(Cl)c(-c2ccc3c(NC(=O)c4ccc(N(C)C)cc4)n[nH]c3c2)c1Cl [Example 35, N-(6-(2,6-dichloro-3,5-dimethoxyphenyl)-1H-indazole-3-yl)-4-(dimethylamino)benzamide]	–	< 100	< 100	–
COc1cc(OC)c(Cl)c(-c2ccc3c(NC(=O)c4cnn(CCO)c4)n[nH]c3c2)c1Cl [Example 31, N-(6-(2,6-dichloro-3,5-dimethoxyphenyl)-1H-indazole-3-yl)-1-(2-hydroxyethyl)-1H-pyrazol-4-formamide]	–	< 100	< 100	–
COc1cc(OC)cc(-c2ccc3c(NC(=O)c4ccc(N5C[C@@H](C)N[C@@H](C)C5)cc4)n[nH]c3n2)c1 [Example 68, N-(6-(3,5-dimethoxyphenyl)-1H-pyrazolo [3,4-b]pyridin-3-yl)-4-(((3R,5S)-3,5-dimethylpiperazine-1-yl))benzamide]	–	< 100	< 100	–
COc1cc(OC)c(Cl)c(-c2ccc3c(NC(=O)c4ccc(N5CCC(N(C)C)C5)cc4)n[nH]c3n2)c1Cl (stereo not drawn) [Example 100]	–	< 100	< 100	–
COc1cc(OC)c(Cl)c(-c2ccc3c(NC(=O)c4ccc(N5CCN(C)CC5)nc4)n[nH]c3n2)c1Cl [Example 85, N-(6-(2,6-dichloro-3,5-dimethoxyphenyl)-1H-pyrazolo [3,4-b]pyridin-3-yl)-6-(4-methylpiperazine-1-yl)nicotinamide]	–	< 100	< 100	–
COc1cc(OC)cc(-c2ccc3c(NC(=O)c4ccc(N5C[C@@H](C)N[C@@H](C)C5)cc4)n[nH]c3c2)c1 [Example 29, N-(6-(3,5-dimethoxyphenyl)-1H-indazole-3-yl)-4-((3R, 5S)-3,5-dimethylpiperazine-1-yl)benzamide]	–	< 100	< 100	–
COc1cc(OC)c(Cl)c(-c2ccc3c(NC(=O)c4ccc(N5C[C@@H](C)N[C@@H](C)C5)nc4)n[nH]c3n2)c1Cl [Example 71]	–	< 100	< 100	–
COc1cc(OC)c(F)c(-c2ccc3c(NC(=O)c4ccc(N5CCNC(C)(C)C5)cc4)n[nH]c3c2)c1F [Example 46, N-(6-(2,6-difluoro-3,5-dimethoxyphenyl)-1H-indazole-3-yl)-4-(3,3-dimethylpiperazine-1-yl)benzamide]	–	< 100	< 100	–
COc1cc(OC)c(Cl)c(-c2ccc3c(NC(=O)c4ccc(NCCN(C)C)cc4)n[nH]c3c2)c1Cl [Example 20, N-(6-(2,6-dichloro-3,5-dimethoxyphenyl)-1H-indazole-3-yl)-4-((2-(dimethylamino)ethyl)amino)benzamide]	–	< 100	< 100	–
COc1cc(OC)c(F)c(-c2ccc3c(NC(=O)c4ccc(CN5CCN(C)CC5)cc4)n[nH]c3c2)c1F [Example 94, N-(6-(2,6-difluoro-3,5-dimethoxyphenyl)-1H-indazole-3-yl)-4-((4-methylpiperazine-1-yl)methyl)benzamide]	–	< 100	< 100	–
